# Experimental data reported in US20230146795A1, “ENHANCEMENT OF ANTI-TUMOR ACTIVITY OF SHP2 INHIBITOR PYRIMIDINONE IN COMBINATION WITH NOVEL CANCER MEDICINES IN CANCERS” (TAIHO PHARMACEUTICAL CO., LTD., priority 2020, published 2023).
# Columns and labels:
# Assay type in all cases: cell-based
# [1] = test system: RT4; test: Anti-proliferation assay (CellTiter-Glo 2.0), combination index, RT4; details: for Description: combination effect
# Experimental: (§1) Cell lines were obtained from ATCC or Health Science Research Resources Bank.
# (§2) Each cell lines were collected by ordinary method, then suspended in indicated medium containing 10% fetal bovine serum in table 3. The number of cells seeded per well was set to 500 cells/20 μL. […] The concentration of each anti-cancer reagents set to 8 concentrations including 0 nM. After adding the medicine to the cells, the cells were further incubated at 37° C. for 3 days under 5% CO2. Cell survival rates were calculated by adding 20 μL of CellTiter-Glo(registered trademark) 2. 0 (Promega) solution to each well, incubating the cells at room temperature for 10 minutes, and then measuring the chemiluminescence intensity of each well using a plate reader (ARVO).
# (§3) A combination index (CI) value at each combined concentration of the medicines was determined.
# [2] = test system: MKN45; test: Anti-proliferation assay (CellTiter-Glo 2.0), combination index, MKN45; details: for Description: combination effect
# Experimental: as §1, §2, §3
# [3] = test system: NCI-H358; test: Anti-proliferation assay (CellTiter-Glo 2.0), combination index, NCI-H358
# Experimental: as §1, §2, §3
# [4] = Compound 1 4.57 nmol/L + Oxalliplatin 41.2 nmol/L, molar ratio 1:9
# [5] = Compound 1 13.7 nmol/L + Oxalliplatin 370 nmol/L, molar ratio 1:27
# [6] = Compound 1 41.2 nmol/L + Oxalliplatin 1110 nmol/L, molar ratio 1:27
# [7] = Compound 1 123 nmol/L + Oxalliplatin 3330 nmol/L, molar ratio 1:27
# [8] = Compound 1 370 nmol/L + Oxalliplatin 10000 nmol/L, molar ratio 1:27
# [9] = Compound 1 370 nmol/L + FTD 123 nmol/L, molar ratio 1:0.3
# [10] = Compound 1 1110 nmol/L + FTD 370 nmol/L, molar ratio 1:0.3
# [11] = Compound 1 3330 nmol/L + FTD 1110 nmol/L, molar ratio 1:0.3
# [12] = Compound 1 123 nmol/L + FTD 3330 nmol/L, molar ratio 1:27
# [13] = Compound 1 370 nmol/L + FTD 10000 nmol/L, molar ratio 1:27
# [14] = Compound 1 13.7 + combination drug 123 nmol/L (1:9)
# [15] = Compound 1 41.2 + combination drug 370 nmol/L (1:9)
# [16] = Compound 1 123 + combination drug 1110 nmol/L (1:9)
# [17] = Compound 1 370 + combination drug 3330 nmol/L (1:9)
# [18] = Compound 1 4.57 + combination drug 41.2 nmol/L (1:9)
# [19] = Compound 1 1110 + combination drug 10000 nmol/L (1:9)
# [20] = Compound 1 4.57 nmol/L + SN-38 0.69 nmol/L, molar ratio 1:0.1
# [21] = Compound 1 13.7 nmol/L + SN-38 2.06 nmol/L, molar ratio 1:0.1
# [22] = Compound 1 41.2 nmol/L + SN-38 6.17 nmol/L, molar ratio 1:0.1
# [23] = Compound 1 123 nmol/L + SN-38 18.5 nmol/L, molar ratio 1:0.1
# [24] = Compound 1 370 nmol/L + SN-38 55.6 nmol/L, molar ratio 1:0.1
# [25] = Compound 1 1110 nmol/L + SN-38 167 nmol/L, molar ratio 1:0.1
# [26] = Compound 1 3330 nmol/L + SN-38 500 nmol/L, molar ratio 1:0.1
# [27] = Compound 1 41.2 nmol/L + SN-38 2.06 nmol/L, molar ratio 1:0.05
# [28] = Compound 1 123 nmol/L + SN-38 6.17 nmol/L, molar ratio 1:0.05
# [29] = Compound 1 370 nmol/L + SN-38 18.5 nmol/L, molar ratio 1:0.05
# [30] = Compound 1 1110 nmol/L + SN-38 55.6 nmol/L, molar ratio 1:0.05
# [31] = Compound 1 123 + combination drug 41.2 nmol/L (1:0.3)
# [32] = Compound 1 370 + combination drug 123 nmol/L (1:0.3)
# [33] = Compound 1 1110 + combination drug 370 nmol/L (1:0.3)
# [34] = Compound 1 3330 + combination drug 1110 nmol/L (1:0.3)
# [35] = Compound 1 10000 + combination drug 3330 nmol/L (1:0.3)
# [36] = Compound 1 4.57 nmol/L + Cisplatin 370 nmol/L, molar ratio 1:81
# [37] = Compound 1 13.7 nmol/L + Cisplatin 1110 nmol/L, molar ratio 1:81
# [38] = Compound 1 41.2 nmol/L + Cisplatin 1110 nmol/L, molar ratio 1:27
# [39] = Compound 1 123 nmol/L + Cisplatin 3330 nmol/L, molar ratio 1:27
# [40] = Compound 1 370 nmol/L + Cisplatin 10000 nmol/L, molar ratio 1:27
# [41] = Compound 1 4.12 nmol/L + Paclitaxel 0.14 nmol/L, molar ratio 1:0.03
# [42] = Compound 1 12.3 nmol/L + Paclitaxel 0.41 nmol/L, molar ratio 1:0.03
# [43] = Compound 1 37.0 nmol/L + Paclitaxel 1.23 nmol/L, molar ratio 1:0.03
# [44] = Compound 1 111 nmol/L + Paclitaxel 3.70 nmol/L, molar ratio 1:0.03
# [45] = Compound 1 333 nmol/L + Paclitaxel 11.1 nmol/L, molar ratio 1:0.03
# [46] = Compound 1 1000 nmol/L + Paclitaxel 33.3 nmol/L, molar ratio 1:0.03
# [47] = Compound 1 12.3 nmol/L + Paclitaxel 1.46 nmol/L, molar ratio 1:0.1
# [48] = Compound 1 37.0 nmol/L + Paclitaxel 4.39 nmol/L, molar ratio 1:0.1
# [49] = Compound 1 111 nmol/L + Paclitaxel 13.2 nmol/L, molar ratio 1:0.1
# [50] = Compound 1 333 nmol/L + Paclitaxel 39.5 nmol/L, molar ratio 1:0.1
# [51] = Compound 1 1000 nmol/L + Paclitaxel 119 nmol/L, molar ratio 1:0.1
molecule,measurement,setting,value
O=C1[O][Pt]2([NH][C@@H]3CCCC[C@H]3[NH]2)[O]C1=O [Oxalliplatin],CI,[1]; [4],0.932
same,Fa,[1]; [4],0.2140
same,CI,[2]; [5],0.571
same,Fa,[2]; [5],0.4748
same,CI,[2]; [6],0.322
same,Fa,[2]; [6],0.6458
same,CI,[2]; [7],0.273
same,Fa,[2]; [7],0.7808
same,CI,[2]; [8],0.216
same,Fa,[2]; [8],0.9038
same,CI,[3]; [5],0.699
same,Fa,[3]; [5],0.1376
same,CI,[3]; [6],0.424
same,Fa,[3]; [6],0.3478
same,CI,[3]; [7],0.623
same,Fa,[3]; [7],0.4795
same,Description,"[3]; combination effect, Compound 1 + Oxalliplatin, molar ratio 1:27",Synergy (0.3-0.7)
O=c1[nH]c(=O)n([C@H]2C[C@H](O)[C@@H](CO)O2)cc1C(F)(F)F [FTD],CI,[1]; [9],0.468
same,Fa,[1]; [9],0.4667
same,CI,[1]; [10],0.676
same,Fa,[1]; [10],0.6009
same,CI,[1]; [11],0.618
same,Fa,[1]; [11],0.7931
same,Description,"[1]; Compound 1 + FTD, molar ratio 1:0.3",Synergy (0.3-0.7)
same,CI,[2]; [12],0.716
same,Fa,[2]; [12],0.6654
same,CI,[2]; [13],0.494
same,Fa,[2]; [13],0.8785
same,Description,"[2]; Compound 1 + FTD, molar ratio 1:27",Synergy (0.3-0.7)
Cn1cnc2c(F)c(Nc3ccc(Br)cc3F)c(C(=O)NOCCO)cc21 [Binimetinib],CI,[2]; [14],0.630
same,Fa,[2]; [14],0.2390
same,CI,[2]; [15],0.387
same,Fa,[2]; [15],0.5003
same,CI,[2]; [16],0.212
same,Fa,[2]; [16],0.7765
same,CI,[2]; [17],0.360
same,Fa,[2]; [17],0.8408
same,CI,[3]; [18],0.883
same,Fa,[3]; [18],0.0312
same,CI,[3]; [14],0.223
same,Fa,[3]; [14],0.1821
same,CI,[3]; [15],0.196
same,Fa,[3]; [15],0.3954
same,CI,[3]; [16],0.222
same,Fa,[3]; [16],0.6241
same,CI,[3]; [17],0.349
same,Fa,[3]; [17],0.7635
same,CI,[3]; [19],0.673
same,Fa,[3]; [19],0.8387
SN-38,CI,[1]; [20],0.322
same,Fa,[1]; [20],0.2202
same,CI,[1]; [21],0.554
same,Fa,[1]; [21],0.2912
same,CI,[1]; [22],0.621
same,Fa,[1]; [22],0.4442
same,CI,[1]; [23],0.472
same,Fa,[1]; [23],0.6700
same,CI,[1]; [24],0.554
same,Fa,[1]; [24],0.7937
same,CI,[1]; [25],0.310
same,Fa,[1]; [25],0.9240
same,CI,[1]; [26],0.064
same,Fa,[1]; [26],0.9872
same,CI,[2]; [27],0.750
same,Fa,[2]; [27],0.3061
same,CI,[2]; [28],0.390
same,Fa,[2]; [28],0.6496
same,CI,[2]; [29],0.261
same,Fa,[2]; [29],0.8647
same,CI,[2]; [30],0.536
same,Fa,[2]; [30],0.8972
O=C(c1ccc(F)c(F)c1Nc1ccc(I)cc1F)N1CC(O)([C@@H]2CCCCN2)C1 [Cobimetinib],CI,[2]; [14],0.806
same,Fa,[2]; [14],0.2247
same,CI,[2]; [15],0.459
same,Fa,[2]; [15],0.6457
same,CI,[2]; [16],0.616
same,Fa,[2]; [16],0.8262
same,Description (combinatory effect by CI),[2]; Compound 1:combination drug molar ratio 1:9,Synergy (0.3-0.7)
same,CI,[3]; [31],0.334
same,Fa,[3]; [31],0.3595
same,CI,[3]; [32],0.172
same,Fa,[3]; [32],0.5769
same,CI,[3]; [33],0.165
same,Fa,[3]; [33],0.7439
same,CI,[3]; [34],0.258
same,Fa,[3]; [34],0.8360
same,CI,[3]; [35],0.585
same,Fa,[3]; [35],0.8699
N.N.[Cl][Pt][Cl] [Cisplatin],CI,[1]; [36],0.632
same,Fa,[1]; [36],0.0886
same,CI,[1]; [37],0.539
same,Fa,[1]; [37],0.2585
same,Description,"[1]; Compound 1 + Cisplatin, molar ratio 1:81",Synergy (0.3-0.7)
same,CI,[2]; [38],0.694
same,Fa,[2]; [38],0.2057
same,CI,[2]; [39],0.626
same,Fa,[2]; [39],0.5148
same,CI,[2]; [40],0.681
same,Fa,[2]; [40],0.8006
same,Description,"[2]; Compound 1 + Cisplatin, molar ratio 1:27",Synergy (0.3-0.7)
CC(=O)O[C@H]1C(=O)[C@@]2(C)[C@H]([C@H](OC(=O)c3ccccc3)[C@]3(O)C[C@H](OC(=O)[C@H](O)[C@@H](NC(=O)c4ccccc4)c4ccccc4)C(C)=C1C3(C)C)[C@]1(OC(C)=O)CO[C@@H]1C[C@@H]2O [Paclitaxel],CI,[1]; [41],0.690
same,Fa,[1]; [41],0.1066
same,CI,[1]; [42],0.828
same,Fa,[1]; [42],0.1742
same,CI,[1]; [43],0.386
same,Fa,[1]; [43],0.4157
same,CI,[1]; [44],0.366
same,Fa,[1]; [44],0.6114
same,CI,[1]; [45],0.371
same,Fa,[1]; [45],0.7739
same,CI,[1]; [46],0.681
same,Fa,[1]; [46],0.8306
same,Description,"[1]; Compound 1 + Paclitaxel, molar ratio 1:0.03",Synergy (0.3-0.7)
same,CI,[2]; [47],0.106
same,Fa,[2]; [47],0.4372
same,CI,[2]; [48],0.222
same,Fa,[2]; [48],0.5083
same,CI,[2]; [49],0.307
same,Fa,[2]; [49],0.6577
same,CI,[2]; [50],0.409
same,Fa,[2]; [50],0.7864
same,CI,[2]; [51],0.957
same,Fa,[2]; [51],0.8179
